Where two headings read alike, the source gives them in different places.

What all share (assay): SPR (Biacore T200), SBP immobilised on CM5
Settings in all cases: 25°C, 20 mM phosphate/citrate pH 6.5, 150 mM NaCl, 0.005% Tween 20

The target in one test is T1, BpAXBP1 (Bifidobacterium pseudocatenulatum, UniProt A0A087BW54).
T1 construct: predicted signal peptide removed, N-terminal His tag (pCold I), E. coli BL21; primers encode native start ACGGGTN after IEGRH linker and end KNLKVKK; immobilised on CM5 chip
T1 sequence (A0A087BW54 25-563): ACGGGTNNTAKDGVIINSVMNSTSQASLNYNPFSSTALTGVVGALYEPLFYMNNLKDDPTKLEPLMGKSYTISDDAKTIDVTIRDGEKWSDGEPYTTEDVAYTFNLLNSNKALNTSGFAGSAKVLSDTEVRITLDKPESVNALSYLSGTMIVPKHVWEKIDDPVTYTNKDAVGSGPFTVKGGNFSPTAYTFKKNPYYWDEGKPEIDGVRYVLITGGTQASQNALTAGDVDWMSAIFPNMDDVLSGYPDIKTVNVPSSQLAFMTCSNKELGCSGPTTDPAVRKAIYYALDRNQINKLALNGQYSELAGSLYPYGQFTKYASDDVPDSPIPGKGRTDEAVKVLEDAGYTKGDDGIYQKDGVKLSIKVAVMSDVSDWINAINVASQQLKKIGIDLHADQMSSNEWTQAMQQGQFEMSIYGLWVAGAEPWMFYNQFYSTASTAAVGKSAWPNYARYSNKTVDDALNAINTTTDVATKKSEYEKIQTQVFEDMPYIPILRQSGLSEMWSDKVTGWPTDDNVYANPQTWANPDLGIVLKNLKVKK
The class given is binding.

For the next test, the target named is T2, BpAXBP3 (Bifidobacterium pseudocatenulatum, UniProt A0ABY6YA63).
T2 construct: gene msmE_1; predicted signal peptide removed, N-terminal His tag (pCold I), E. coli BL21; primers encode native start KDDKTITFW after IEGRH linker and end AASKG; immobilised on CM5 chip
T2 sequence (A0ABY6YA63 29-424): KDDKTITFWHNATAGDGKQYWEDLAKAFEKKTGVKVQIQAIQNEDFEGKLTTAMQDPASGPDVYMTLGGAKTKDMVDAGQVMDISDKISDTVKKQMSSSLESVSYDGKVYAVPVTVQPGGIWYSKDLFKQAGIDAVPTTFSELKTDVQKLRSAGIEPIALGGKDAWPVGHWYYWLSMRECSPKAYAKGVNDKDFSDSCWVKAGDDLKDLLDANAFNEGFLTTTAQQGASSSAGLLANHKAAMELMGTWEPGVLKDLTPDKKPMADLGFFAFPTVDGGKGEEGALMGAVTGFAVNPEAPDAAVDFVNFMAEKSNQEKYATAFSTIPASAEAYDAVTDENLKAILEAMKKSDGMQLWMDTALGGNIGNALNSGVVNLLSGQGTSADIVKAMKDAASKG
The class given is binding.

The target of another test is T3, BpAXBP2.
T3 construct: gene BBPC_RS02280; predicted signal peptide removed, N-terminal His tag (pCold I), E. coli BL21; primers encode native start ASKDEN after IEGRH linker and end ALPTE; immobilised on CM5 chip
The arrangement: species or system Bifidobacterium pseudocatenulatum.

As to `OC1OC[C@@H](O[C@@H]2OC[C@@H](O)[C@H](O)[C@H]2O)[C@H](O)[C@H]1O` (stereo partly drawn) [XOS2, xylobiose], the Kd (as a rule, the constant that tells how readily two partners part at equilibrium) on BpAXBP1 is “BpAXBP1 exhibited a high affinity for XOS and AXOS4”; at BpAXBP3, less than 100 µM.

With `OC[C@@H]1O[C@@H](O[C@H]2[C@H](O[C@@H]3CO[C@@H](O[C@@H]4COC(O)[C@H](O)[C@H]4O)[C@H](O)[C@H]3O)OC[C@@H](O)[C@@H]2O)[C@H](O)[C@H]1O` (stereo partly drawn) [AXOS3, 2^3-α-L-arabinofuranosyl-xylotriose], the Kd was 19.2 µM on BpAXBP2 and less than 100 µM on BpAXBP3.

With `OC[C@@H]1O[C@@H](O[C@@H]2[C@@H](O)[C@H](O[C@@H]3COC(O)[C@H](O)[C@H]3O)OC[C@H]2O)[C@H](O)[C@H]1O` (stereo partly drawn) [AXOS1, 3^2-α-L-arabinofuranosyl-xylobiose], the Kd on BpAXBP2 is 0.66 µM; at BpAXBP3, less than 100 µM.

On to `OC1OC[C@@H](O[C@@H]2OC[C@@H](O[C@@H]3OC[C@@H](O)[C@H](O)[C@H]3O)[C@H](O)[C@H]2O)[C@H](O)[C@H]1O` (stereo partly drawn) [XOS3, xylotriose], for which the figures for the Kd on BpAXBP1 (read-out: Kd) and at BpAXBP3 were 18.7 µM and less than 100 µM, respectively.

As to `OC1OC[C@@H](O[C@@H]2OC[C@@H](O[C@@H]3OC[C@@H](O[C@@H]4OC[C@@H](O[C@@H]5OC[C@@H](O[C@@H]6OC[C@@H](O)[C@H](O)[C@H]6O)[C@H](O)[C@H]5O)[C@H](O)[C@H]4O)[C@H](O)[C@H]3O)[C@H](O)[C@H]2O)[C@H](O)[C@H]1O` (stereo partly drawn) [XOS6, xylohexaose], the Kd is 8.2 µM on BpAXBP1 (read-out: Kd) and less than 100 µM on BpAXBP3.

In the case of `OC[C@@H]1O[C@@H](O[C@@H]2[C@@H](O)[C@H](O[C@@H]3CO[C@@H](O[C@@H]4COC(O)[C@H](O)[C@H]4O)[C@H](O)[C@H]3O)OC[C@H]2O[C@@H]2OC[C@@H](O)[C@H](O)[C@H]2O)[C@H](O)[C@H]1O` (stereo partly drawn) [AXOS4, 3^3-α-L-arabinofuranosyl-xylotetraose], the Kd at BpAXBP2 is 103 µM; on BpAXBP1 (read-out: Kd), 7.5 µM; on BpAXBP3, less than 100 µM.

As to `OC1OC[C@@H](O[C@@H]2OC[C@@H](O[C@@H]3OC[C@@H](O[C@@H]4OC[C@@H](O[C@@H]5OC[C@@H](O)[C@H](O)[C@H]5O)[C@H](O)[C@H]4O)[C@H](O)[C@H]3O)[C@H](O)[C@H]2O)[C@H](O)[C@H]1O` (stereo partly drawn) [XOS5, xylopentaose], the Kd at BpAXBP1 (read-out: Kd) is 1.5 µM; on BpAXBP3, less than 100 µM.

As for `OC1OC[C@@H](O[C@@H]2OC[C@@H](O[C@@H]3OC[C@@H](O[C@@H]4OC[C@@H](O)[C@H](O)[C@H]4O)[C@H](O)[C@H]3O)[C@H](O)[C@H]2O)[C@H](O)[C@H]1O` (stereo partly drawn) [XOS4, xylotetraose], the figures for the Kd at BpAXBP1 (read-out: Kd) and on BpAXBP3 were 0.63 µM and less than 100 µM, respectively.

`OC[C@@H]1O[C@@H](O[C@@H]2[C@@H](O[C@@H]3O[C@@H](CO)[C@H](O)[C@H]3O)[C@H](O[C@@H]3CO[C@@H](O[C@@H]4COC(O)[C@H](O)[C@H]4O)[C@H](O)[C@H]3O)OC[C@H]2O)[C@H](O)[C@H]1O` (stereo partly drawn) [AXOS2, 2^3,3^3-di-α-L-arabinofuranosyl-xylotriose] came in with a Kd at BpAXBP2 of 0.69 µM.
